For this experiment, the target named is T1, HIV-1-protease (Human immunodeficiency virus type 1 group M subtype B, UniProt P04585).
T1 construct: made in house
Put plainly: Inhibition of HIV-1-protease with icosapeptide substrate […] (HPLC). In kind it is biochemical. Particulars: icosapeptide […] 122 µM, 20 mM MES pH 6.0, one hour at 37°C; read-out: IC50. How it is done: The inhibitory action of the compounds of formula I on the proteolytic activity of HIV-1-protease can be shown, for example, according to known procedures (see A. D. Richards et al., J. Biol. Chem. 265(14), 7733-7736 (1990)). In that method the inhibition of the action of HIV-1-protease (preparation: see S. Billich et al., J. Biol. Chem. 263(34), 17905-17908 (1990)) is measured in the presence of the icosapeptide […] (a synthetic substrate of HIV-1-protease, prepared by peptide synthesis in accordance with known procedures (see J. Schneider et al., Cell 54, 363-368 (1988)), which contains as substrate analogue one of the cleavage sites of the gag-precursor protein (natural substrate of HIV-1-protease). That substrate and its cleavage products are analysed by high performance liquid chromatography (HPLC).
The test compound is dissolved in dimethyl sulfoxide. The enzymatic test is carried out by adding suitable dilutions of the inhibitor in 20 mM β-morpholinoethanesulfonic acid (MES) buffer pH 6.0 to the test mixture. That mixture consists of the above-mentioned icosapeptide (122 µM) in 20 mM MES-buffer pH 6.0. 100 µl are used per test batch. The reaction is started by the addition of […] of HIV-1-protease solution and is stopped after one hour's incubation at 37°C by the addition of 10 µl of 0.3M HClO4. After centrifugation of the sample at 10 000 x g for 5 minutes, 20 µl of the resulting supernatant are applied to a 125 x 4.6 mm Nucleosil® C18-5m-HPLC column (reversed-phase material supplied by Macherey & Nagel, Düren, FRG, based on silica gel that has been charged with C18alkyl chains). The uncleaved icosapeptide and its cleavage products are eluted from the column by means of the following gradient: 100 % eluant 1 → 50 % eluant 1 + 50 % eluant 2 (eluant 1: 10 % acetonitrile, 90 % H2O, 0.1 % trifluoroacetic acid (TFA); eluant 2: 75 % acetonitrile, 25 % H2O, 0.08 % TFA) for 15 minutes, throughflow rate 1 ml/min. The quantification of the eluted peptide fragments is carried out by measuring the peak height of the cleavage product at 215 nm.
Using the test system described above with the icosapeptide […], the IC50 values given below are obtained for the following Examples: […]
Take `CCOC(=O)N[C@H](C(=O)NN(Cc1ccc(-c2nccs2)cc1)C[C@H](O)[C@H](Cc1ccccc1)NC(=O)[C@@H](NC(=O)OC)C(C)C)C(C)C` [Example 19, 1-[4-(Thiazol-2-yl)-phenyl]-4(S)-hydroxy-2-N-(N-ethoxycarbonyl-(L)-valyl)amino-5(S)-N-(N-methoxycarbonyl-(L)-valyl)amino-6-phenyl-2-azahexane]: the half-inhibitory concentration (IC50) was 22 nM.

Consider `COC(=O)N[C@H](C(=O)N[C@@H](Cc1ccccc1)[C@@H](O)CN(Cc1ccc(-c2nccs2)cc1)NC(=O)[C@@H](NC(=O)OC)C(C)C)C(C)C` [Example 20, 1-[4-(Thiazol-2-yl)-phenyl]-4(S)-hydroxy-5(S)-2,5-bis[N-(N-methoxycarbonyl-(L)-valyl)amino]-6-phenyl-2-azahexane], for which the concentration for half-maximal inhibition (IC50) stood at 15 nM.

Regarding `CC[C@H](C)[C@H](NC(=O)OC)C(=O)N[C@@H](Cc1ccccc1)[C@@H](O)CN(Cc1ccc(-c2nccs2)cc1)NC(=O)[C@@H](NC(=O)OC)C(C)(C)C` [Example 21, 1-[4-(Thiazol-2-yl)-phenyl]-4(S)-hydroxy-2-N-(N-methoxycarbonyl-(L)-tert-leucyl)amino-5(S)-N-(N-methoxycarbonyl-(L)-iso-leucyl)amino-6-phenyl-2-azahexane], the half-maximal inhibitory concentration (IC50) amounted to 43 nM.

For `CCOC(=O)N[C@H](C(=O)NN(Cc1ccc(-c2nccs2)cc1)C[C@H](O)[C@H](Cc1ccccc1)NC(=O)[C@@H](NC(=O)OC)[C@@H](C)CC)C(C)C` [Example 22, 1-[4-(Thiazol-2-yl)-phenyl]-4(S)-hydroxy-2-N-(N-ethoxycarbonyl-(L)-valyl)amino-5(S)-N-(N-methoxycarbonyl-(L)-iso-leucyl)amino-6-phenyl-2-azahexane], the IC50 turned out to be 40 nM.

`CC[C@H](C)[C@H](NC(=O)OC)C(=O)N[C@@H](Cc1ccccc1)[C@@H](O)CN(Cc1ccc(-c2nccs2)cc1)NC(=O)[C@@H](NC(=O)OC)C(C)C` [Example 23, 1-[4-(Thiazol-2-yl)-phenyl]-4(S)-hydroxy-2-N-(N-methoxycarbonyl-(L)-valyl)amino-5(S)-N-(N-methoxycarbonyl-(L)-iso-leucyl)amino-6-phenyl-2-azahexane]: the IC50 came to 34 nM.

For `CC[C@H](C)[C@H](NC(=O)OC)C(=O)N[C@@H](Cc1ccccc1)[C@@H](O)CN(Cc1ccc(-c2nccs2)cc1)NC(=O)[C@H](CSC)NC(=O)OC` [Example 24, 1-[4-(Thiazol-2-yl)-phenyl]-4(S)-hydroxy-2-N-(N-methoxycarbonyl-(L)-S-methylcysteinyl)amino-5(S)-N-(N-methoxycarbonyl-(L)-iso-leucyl)amino-6-phenyl-2-azahexane], the concentration for half-maximal inhibition (IC50) came out at 50 nM.

As for `COC(=O)N[C@H](C(=O)N[C@@H](Cc1ccccc1)[C@@H](O)CN(Cc1ccc(-c2nnn(C(C)(C)c3ccccc3)n2)cc1)NC(=O)[C@@H](NC(=O)OC)C(C)(C)C)C(C)(C)C` [Example 25, 1-{4-[2-(1-Methyl-1-phenyl-ethyl)-2H-tetrazol-5-yl]-phenyl}-4(S)-hydroxy-5(S)-2,5-bis[N-(N-methoxycarbonyl-(L)-tert-leucyl)amino]-6-phenyl-2-azahexane], the 50% inhibitory concentration (IC50) worked out at 100 nM.

In the case of `COC(=O)N[C@H](C(=O)N[C@@H](Cc1ccccc1)[C@@H](O)CN(Cc1ccc(-c2nnn[nH]2)cc1)NC(=O)[C@@H](NC(=O)OC)C(C)(C)C)C(C)(C)C` [Example 26, 1-[4-(Tetrazol-5-yl)-phenyl]-4(S)-hydroxy-5(S)-2,5-bis[N-(N-methoxycarbonyl-(L)-tert-leucyl)amino]-6-phenyl-2-azahexane], the IC50 came out at 21 nM.

Consider `COC(=O)N[C@H](C(=O)N[C@@H](Cc1ccccc1)[C@@H](O)CN(Cc1ccc(-c2nnn(C)n2)cc1)NC(=O)[C@@H](NC(=O)OC)C(C)(C)C)C(C)(C)C` [Example 27, 1-[4-(2-Methyl-2H-tetrazol-5-yl)-phenyl]-4(S)-hydroxy-5(S)-2,5-bis[N-(N-methoxycarbonyl-(L)-tert-leucyl)amino]-6-phenyl-2-azahexane], for which the IC50 worked out at 27 nM.

In the case of `CC[C@H](C)[C@H](NC(=O)OC)C(=O)NN(Cc1ccc(-c2nnn(C(C)(C)c3ccccc3)n2)cc1)C[C@H](O)[C@H](Cc1ccccc1)NC(=O)[C@@H](NC(=O)OC)C(C)(C)C` [Example 28, 1-{4-[2-(1-Methyl-1-phenyl-ethyl)-2H-tetrazol-5-yl]-phenyl}-4(S)-hydroxy-2-N-(N-methoxycarbonyl-(L)-iso-leucyl)amino-5(S)-N-(N-methoxycarbonyl-(L)-tert-leucyl)amino-6-phenyl-2-azahexane], the 50% inhibitory concentration (IC50) was 83 nM.

Consider `CC[C@H](C)[C@H](NC(=O)OC)C(=O)NN(Cc1ccc(-c2nnn[nH]2)cc1)C[C@H](O)[C@H](Cc1ccccc1)NC(=O)[C@@H](NC(=O)OC)C(C)(C)C` [Example 29, 1-[4-(Tetrazol-5-yl)-phenyl]-4(S)-hydroxy-2-N-(N-methoxycarbonyl-(L)-iso-leucyl)amino-5(S)-N-(N-methoxycarbonyl-(L)-tert-leucyl)amino-6-phenyl-2-azahexane], for which the IC50 was 14 nM.

For the molecule `CC[C@H](C)[C@H](NC(=O)OC)C(=O)NN(Cc1ccc(-c2nnn(C)n2)cc1)C[C@H](O)[C@H](Cc1ccccc1)NC(=O)[C@@H](NC(=O)OC)C(C)(C)C` [Example 30, 1-[4-(2-Methyl-2H-tetrazol-5-yl)-phenyl]-4(S)-hydroxy-2-N-(N-methoxycarbonyl-(L)-iso-leucyl)amino-5(S)-N-(N-methoxycarbonyl-(L)-tert-leucyl)amino-6-phenyl-2-azahexane], the IC50 is 54 nM.

As for `CC[C@H](C)[C@H](NC(=O)OC)C(=O)N[C@@H](Cc1ccccc1)[C@@H](O)CN(Cc1ccc(-c2nnn(C(C)(C)c3ccccc3)n2)cc1)NC(=O)[C@@H](NC(=O)OC)C(C)(C)C` [Example 31, 1-{4-[2-(1-Methyl-1-phenyl-ethyl)-2H-tetrazol-5-yl]-phenyl}-4(S)-hydroxy-2-N-(N-methoxycarbonyl-(L)-tert-leucyl)amino-5(S)-N-(N-methoxycarbonyl-(L)-iso-leucyl)amino-6-phenyl-2-azahexane], the IC50 came to 171 nM.

On to `COC(=O)N[C@H](C(=O)N[C@@H](Cc1ccccc1)[C@@H](O)CN(Cc1ccc(-c2nnn(C(C)(C)C)n2)cc1)NC(=O)[C@@H](NC(=O)OC)C(C)(C)C)C(C)(C)C` [Example 34, 1-[4-(2-tert-Butyl-2H-tetrazol-5-yl)-phenyl]-4(S)-hydroxy-5(S)-2,5-bis[N-(N-methoxycarbonyl-(L)-tert-leucyl)amino]-6-phenyl-2-azahexane], for which the IC50 worked out at 72 nM.

Turning to `COC(=O)N[C@H](C(=O)N[C@@H](Cc1ccccc1)[C@@H](O)CN(Cc1ccc(-c2nnn(C(C)(C)C)n2)cc1)NC(=O)[C@@H](NC(=O)OC)C(C)(C)C)C(C)C` [Example 35, 1-[4-(2-tert-Butyl-2H-tetrazol-5-yl)-phenyl]-4(S)-hydroxy-2-N-(N-methoxycarbonyl-(L)-tert-leucyl)amino-5(S)-N-(N-methoxycarbonyl-(L)-valyl)amino-6-phenyl-2-azahexane], the 50% inhibitory concentration (IC50) is 58 nM.

Take `COC(=O)N[C@H](C(=O)N[C@@H](Cc1ccccc1)[C@@H](O)CN(Cc1ccc(-c2ccccn2)cc1)NC(=O)[C@@H](NC(=O)OC)C(C)C)C(C)C` [Example 37, 1-[4-(Pyridin-2-yl)-phenyl]-4(S)-hydroxy-5(S)-2,5-bis[N-(N-methoxycarbonyl-(L)-valyl)amino]-6-phenyl-2-azahexane]: the half-maximal inhibitory concentration (IC50) was found to be 29 nM.

With `CCOC(=O)N[C@H](C(=O)N[C@@H](Cc1ccccc1)[C@@H](O)CN(Cc1ccc(-c2ccccn2)cc1)NC(=O)[C@@H](NC(=O)OCC)C(C)C)C(C)C` [Example 38, 1-[4-(Pyridin-2-yl)-phenyl]-4(S)-hydroxy-5(S)-2,5-bis[N-(N-ethoxycarbonyl-(L)-valyl)amino]-6-phenyl-2-azahexane], the IC50 is 85 nM.

With `COC(=O)N[C@H](C(=O)N[C@@H](Cc1ccccc1)[C@@H](O)CN(Cc1ccc(-c2cccnc2)cc1)NC(=O)[C@@H](NC(=O)OC)C(C)C)C(C)C` [Example 39, 1-[4-(Pyridin-3-yl)-phenyl]-4(S)-hydroxy-5(S)-2,5-bis[N-(N-methoxycarbonyl-(L)-valyl)amino]-6-phenyl-2-azahexane], the IC50 amounted to 12 nM.

For the molecule `COC(=O)N[C@H](C(=O)N[C@@H](Cc1ccccc1)[C@@H](O)CN(Cc1ccc(-c2cnccn2)cc1)NC(=O)[C@@H](NC(=O)OC)C(C)C)C(C)C` [Example 40, 1-[4-(Pyrazin-2-yl)-phenyl]-4(S)-hydroxy-5(S)-2,5-bis[N-(N-methoxycarbonyl-(L)-valyl)amino]-6-phenyl-2-azahexane], the IC50 was 21 nM.

The values above are taken from patent EP0900210B1, “ANTIVIRALLY ACTIVE HETEROCYCLIC AZAHEXANE DERIVATIVES” (Novartis AG, priority 1996, dated 1997).
